Laboratory results taken from PubChem BioAssay (NCI).
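The compound was tested at five concentrations on cells cultured in 96-well plates, with a 48-hour exposure period. GI50 = concentration required for 50% inhibition of growth. The concentration for full growth arrest is given as TGI.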

Experiments:
Test in all cases: inhibition of tumour cell growth, NCI panel, 48 h
TK-10 renal = system: TK-10 renal
UACC-257 melanoma = system: UACC-257 melanoma
HS 578T breast = system: HS 578T breast
SK-OV-3 ovarian = system: SK-OV-3 ovarian
SF-295 CNS = system: SF-295 CNS
PC-3 prostate = system: PC-3 prostate
NCI/ADR-RES ovarian = system: NCI/ADR-RES ovarian
SK-MEL-2 melanoma = system: SK-MEL-2 melanoma
KM12 colon = system: KM12 colon
LOX IMVI melanoma = system: LOX IMVI melanoma
OVCAR-8 ovarian = system: OVCAR-8 ovarian
OVCAR-4 ovarian = system: OVCAR-4 ovarian
MDA-MB-435 = system: MDA-MB-435
EKVX NSCLC = system: EKVX NSCLC
HCT-116 colon = system: HCT-116 colon
NCI-H23 lung = system: NCI-H23 lung
COLO 205 colon = system: COLO 205 colon
NCI-H460 lung = system: NCI-H460 lung
OVCAR-5 ovarian = system: OVCAR-5 ovarian
NCI-H226 lung = system: NCI-H226 lung
HOP-62 NSCLC = system: HOP-62 NSCLC
CAKI-1 renal = system: CAKI-1 renal
NCI-H522 lung = system: NCI-H522 lung
UO-31 renal = system: UO-31 renal
HL-60(TB) leukemia = system: HL-60(TB) leukemia
IGROV1 ovarian = system: IGROV1 ovarian
RXF 393 renal = system: RXF 393 renal
HT29 colon = system: HT29 colon

Q: COc1ccc(OC)c(-c2nc3sccn3c2/C=C2/C(=O)Nc3ccccc32)c1 was tested. Which TGI (TK-10 renal) did it give?
A: 20.2 µM

Q: And the GI50 (UACC-257 melanoma)?
A: 11.6 µM

Q: What about the TGI (UACC-257 melanoma) of the same compound?
A: 34.7 µM

Q: And the GI50 (HS 578T breast)?
A: 0.415 µM

Q: And the TGI (HS 578T breast)?
A: 2.3 µM

Q: And the GI50 (SK-OV-3 ovarian)?
A: 0.584 µM

Q: What about the TGI (SK-OV-3 ovarian) of the same compound?
A: 6.36 µM

Q: And the GI50 (SF-295 CNS)?
A: 0.248 µM

Q: And the TGI (SF-295 CNS)?
A: 0.635 µM

Q: And the GI50 (PC-3 prostate)?
A: 0.359 µM

Q: What about the TGI (PC-3 prostate) of the same compound?
A: 14.2 µM

Q: And the GI50 (NCI/ADR-RES ovarian)?
A: 1.42 µM

Q: What about the TGI (NCI/ADR-RES ovarian) of the same compound?
A: 7.76 µM

Q: And the GI50 (SK-MEL-2 melanoma)?
A: 0.713 µM

Q: What about the TGI (SK-MEL-2 melanoma) of the same compound?
A: 29.4 µM

Q: What about the GI50 (KM12 colon) of the same compound?
A: 0.119 µM

Q: And the TGI (KM12 colon)?
A: 2.06 µM

Q: And the GI50 (LOX IMVI melanoma)?
A: 2.82 µM

Q: What about the TGI (LOX IMVI melanoma) of the same compound?
A: 35.1 µM

Q: What about the GI50 (OVCAR-8 ovarian) of the same compound?
A: 0.945 µM

Q: What about the TGI (OVCAR-8 ovarian) of the same compound?
A: > 46.5 µM

Q: What about the GI50 (OVCAR-4 ovarian) of the same compound?
A: 3.01 µM

Q: And the TGI (OVCAR-4 ovarian)?
A: > 38.7 µM

Q: And the GI50 (MDA-MB-435)?
A: 0.111 µM

Q: And the TGI (MDA-MB-435)?
A: 0.293 µM

Q: What about the GI50 (EKVX NSCLC) of the same compound?
A: 2.51 µM

Q: What about the TGI (EKVX NSCLC) of the same compound?
A: 27.7 µM

Q: What about the GI50 (HCT-116 colon) of the same compound?
A: 0.142 µM

Q: And the TGI (HCT-116 colon)?
A: 1.52 µM

Q: What about the GI50 (NCI-H23 lung) of the same compound?
A: 0.255 µM

Q: And the TGI (NCI-H23 lung)?
A: 1.69 µM

Q: What about the GI50 (COLO 205 colon) of the same compound?
A: 0.595 µM

Q: And the GI50 (NCI-H460 lung)?
A: 0.511 µM

Q: What about the TGI (NCI-H460 lung) of the same compound?
A: > 37.6 µM

Q: What about the GI50 (OVCAR-5 ovarian) of the same compound?
A: 0.437 µM

Q: What about the TGI (OVCAR-5 ovarian) of the same compound?
A: 12.8 µM

Q: What about the GI50 (NCI-H226 lung) of the same compound?
A: 1.4 µM

Q: What about the TGI (NCI-H226 lung) of the same compound?
A: 4.89 µM

Q: What about the GI50 (HOP-62 NSCLC) of the same compound?
A: 0.123 µM

Q: And the TGI (HOP-62 NSCLC)?
A: 4.41 µM

Q: What about the GI50 (CAKI-1 renal) of the same compound?
A: 0.506 µM

Q: And the TGI (CAKI-1 renal)?
A: 8.68 µM

Q: And the GI50 (NCI-H522 lung)?
A: 0.294 µM

Q: What about the TGI (NCI-H522 lung) of the same compound?
A: 17.3 µM

Q: And the GI50 (UO-31 renal)?
A: 1.1 µM

Q: And the TGI (UO-31 renal)?
A: > 41 µM

Q: And the GI50 (HL-60(TB) leukemia)?
A: 0.0524 µM

Q: And the TGI (HL-60(TB) leukemia)?
A: 26.5 µM

Q: And the GI50 (IGROV1 ovarian)?
A: 2.1 µM

Q: What about the TGI (IGROV1 ovarian) of the same compound?
A: > 86.1 µM

Q: What about the GI50 (RXF 393 renal) of the same compound?
A: 0.553 µM

Q: What about the TGI (RXF 393 renal) of the same compound?
A: 17.9 µM

Q: What about the GI50 (HT29 colon) of the same compound?
A: 0.355 µM
